biological target: PI3K-alpha (Homo sapiens (Human), UniProt P42336); experiment: HTRF PI3K biochemical assay, alpha isoform; details: ratio PI3K-alpha IC50 value/PI3K-delta IC50 value
Sequence (P42336 whole entry, looked up, canonical isoform): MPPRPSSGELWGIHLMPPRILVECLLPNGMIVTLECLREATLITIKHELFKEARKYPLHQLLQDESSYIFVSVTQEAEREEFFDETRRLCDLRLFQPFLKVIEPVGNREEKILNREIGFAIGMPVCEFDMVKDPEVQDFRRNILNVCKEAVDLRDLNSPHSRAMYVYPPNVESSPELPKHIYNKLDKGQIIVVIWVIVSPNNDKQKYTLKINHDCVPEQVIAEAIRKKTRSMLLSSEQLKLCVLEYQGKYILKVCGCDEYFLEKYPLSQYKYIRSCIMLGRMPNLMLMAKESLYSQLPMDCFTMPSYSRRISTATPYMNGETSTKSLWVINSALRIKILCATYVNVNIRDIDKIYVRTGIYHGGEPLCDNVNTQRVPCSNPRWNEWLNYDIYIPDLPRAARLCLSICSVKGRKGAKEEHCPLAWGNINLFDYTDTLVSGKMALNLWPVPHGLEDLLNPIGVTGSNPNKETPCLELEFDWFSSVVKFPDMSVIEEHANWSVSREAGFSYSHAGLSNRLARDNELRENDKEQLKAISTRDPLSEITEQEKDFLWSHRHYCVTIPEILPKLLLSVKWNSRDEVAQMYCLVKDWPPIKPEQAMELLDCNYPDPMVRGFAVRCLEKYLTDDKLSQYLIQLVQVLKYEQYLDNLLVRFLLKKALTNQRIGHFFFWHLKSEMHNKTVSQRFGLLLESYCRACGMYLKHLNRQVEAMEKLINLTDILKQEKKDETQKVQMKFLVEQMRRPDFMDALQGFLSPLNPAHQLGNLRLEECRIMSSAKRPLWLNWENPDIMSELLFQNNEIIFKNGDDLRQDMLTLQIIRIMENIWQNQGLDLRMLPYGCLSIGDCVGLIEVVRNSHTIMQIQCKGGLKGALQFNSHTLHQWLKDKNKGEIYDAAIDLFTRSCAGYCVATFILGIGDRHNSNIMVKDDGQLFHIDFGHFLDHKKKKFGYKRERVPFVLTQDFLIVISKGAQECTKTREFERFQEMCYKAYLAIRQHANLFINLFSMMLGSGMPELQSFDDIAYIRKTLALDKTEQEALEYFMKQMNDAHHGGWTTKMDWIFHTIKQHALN
Sequence (P27986 whole entry partner, looked up, canonical isoform): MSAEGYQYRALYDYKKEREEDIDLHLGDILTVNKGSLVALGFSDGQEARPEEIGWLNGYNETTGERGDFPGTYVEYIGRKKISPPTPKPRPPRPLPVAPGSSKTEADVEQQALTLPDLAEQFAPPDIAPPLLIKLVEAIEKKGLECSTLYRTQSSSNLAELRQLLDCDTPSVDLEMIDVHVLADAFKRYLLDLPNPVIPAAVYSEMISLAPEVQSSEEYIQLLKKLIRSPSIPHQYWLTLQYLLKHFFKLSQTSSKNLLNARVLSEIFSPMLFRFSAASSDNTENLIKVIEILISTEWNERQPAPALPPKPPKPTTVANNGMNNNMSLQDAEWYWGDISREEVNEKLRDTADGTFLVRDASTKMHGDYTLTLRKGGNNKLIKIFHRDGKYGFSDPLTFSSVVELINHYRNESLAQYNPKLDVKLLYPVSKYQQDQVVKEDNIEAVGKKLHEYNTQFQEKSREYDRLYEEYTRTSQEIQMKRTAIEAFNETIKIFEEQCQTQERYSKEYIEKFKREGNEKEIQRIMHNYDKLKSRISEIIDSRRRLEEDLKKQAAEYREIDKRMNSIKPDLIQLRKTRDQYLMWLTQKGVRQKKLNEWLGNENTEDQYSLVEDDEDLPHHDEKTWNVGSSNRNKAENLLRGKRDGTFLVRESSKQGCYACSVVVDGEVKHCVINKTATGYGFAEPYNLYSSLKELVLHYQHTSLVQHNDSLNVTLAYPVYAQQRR

| SMILES | Relative Selectivity versus PI3Kalpha |
| --- | --- |
| CCn1c(-c2cnn3c2CCCC3)nc2c(O[C@H]3CCN(C(=O)C4CC4)C3)ncnc21 [Compound 3-59, 6-{[(3S)-1-(cyclopropylcarbonyl)pyrrolidin-3-yl]oxy}-9-ethyl-8-(4,5,6,7-tetrahydropyrazolo[1,5-a]pyridin-3-yl)-9H-purine] | >10 |
| CCn1c(-c2cnn3c2CCCC3)nc2c(O[C@H]3CCN(C(=O)C(C)C)C3)ncnc21 [Compound 3-60, 9-ethyl-6-{[(3S)-1-(2-methylpropanoyl)pyrrolidin-3-yl]oxy}-8-(4,5,6,7-tetrahydropyrazolo[1,5-a]pyridin-3-yl)-9H-purine] | >10 |
| CCn1ncc(-c2nc3c(O[C@H]4CCN(C(=O)C5CCOCC5)C4)ncnc3n2CC)c1C [Compound 3-61, (S)-(3-((9-ethyl-8-(1-ethyl-5-methyl-1H-pyrazol-4-yl)-9H-purin-6-yl)oxy)pyrrolidin-1-yl)(tetrahydro-2H-pyran-4-yl)methanone] | >10 |
| CCn1c(-c2cnc(C)nc2)nc2c(OC3CN(C(=O)C4CC4)CC34CC4)ncnc21 (centres unmarked) [Compound 3-63, (R— or S—)-6-{[5-(cyclopropylcarbonyl)-5-azaspiro[2.4]hept-7-yl]oxy}-9-ethyl-8-(2-methylpyrimidin-5-yl)-9H-purine] | >10 |
| CCn1c(-c2cnc(C)nc2)nc2c(OC3CN(C(=O)C4CC4)CC34CC4)ncnc21 (centres unmarked) [Compound 3-64, (R— or S—)-6-{[5-(cyclopropylcarbonyl)-5-azaspiro[2.4]hept-7-yl]oxy}-9-ethyl-8-(2-methylpyrimidin-5-yl)-9H-purine] | >10 |
| CCn1c(-c2cnc(C)nc2)nc2c(O[C@H]3CCN(S(=O)(=O)CC)C3)ncnc21 [Compound 4-8, (S)-9-ethyl-6-((1-(ethylsulfonyl)pyrrolidin-3-yl)oxy)-8-(2-methylpyrimidin-5-yl)-9H-purine] | >10 |
| CCn1ncc(-c2nc3c(O[C@H]4CCN(C(=O)NC(C)C)C4)ncnc3n2C)c1C [Compound 5-3, (3S)-3-{[8-(1-ethyl-5-methyl-1H-pyrazol-4-yl)-9-methyl-9H-purin-6-yl]oxy}-N-(1-methylethyl)pyrrolidine-1-carboxamide] | >10 |
| CCn1ncc(-c2nc3c(O[C@H]4CCN(C(=O)NC(C)(C)CC(C)(C)C)C4)ncnc3n2C)c1C [Compound 5-4, (3S)-3-{[8-(1-ethyl-5-methyl-1H-pyrazol-4-yl)-9-methyl-9H-purin-6-yl]oxy}-N-(1,1,3,3-tetramethylbutyl)pyrrolidine-1-carboxamide] | >10 |
| CCOC(=O)[C@H](C)NC(=O)N1CC[C@H](Oc2ncnc3c2nc(-c2cnn(CC)c2C)n3C)C1 [Compound 5-6, ethyl N-{[(3S)-3-{[8-(1-ethyl-5-methyl-1H-pyrazol-4-yl)-9-methyl-9H-purin-6-yl]oxy}pyrrolidin-1-yl]carbonyl}alaninate] | 5 |
| CCNC(=O)N1CC[C@H](Oc2ncnc3c2nc(-c2cnn(CC)c2C)n3C)C1 [Compound 5-7, (S)-N-ethyl-3-((8-(1-ethyl-5-methyl-1H-pyrazol-4-yl)-9-methyl-9H-purin-6-yl]oxy}pyrrolidine-1-carboxamide] | >10 |
| CCNC(=O)N1CC[C@H](Oc2ncnc3c2nc(-c2cnc(C)nc2)n3CC)C1 [Compound 5-8, (3S)-N-ethyl-3-{[9-ethyl-8-(2-methylpyrimidin-5-yl)-9H-purin-6-yl]oxy}pyrrolidine-1-carboxamide] | >10 |
| CCN(C)C(=O)N1CC[C@H](Oc2ncnc3c2nc(-c2cnc(C)nc2)n3CC)C1 [Compound 5-9, (3S)-N-ethyl-3-{[9-ethyl-8-(2-methylpyrimidin-5-yl)-9H-purin-6-yl]oxy}-N-methylpyrrolidine-1-carboxamide] | >10 |
| CCn1c(-c2cnc(C)nc2)nc2c(O[C@H]3CCN(C(=O)N(C)C4CC4)C3)ncnc21 [Compound 5-10, (3S)-N-cyclopropyl-3-{[9-ethyl-8-(2-methylpyrimidin-5-yl)-9H-purin-6-yl]oxy}-N-methylpyrrolidine-1-carboxamide] | >10 |
| CCn1c(-c2cnc(C)nc2)nc2c(O[C@H]3CCN(C(=O)N4CCC4)C3)ncnc21 [Compound 5-11, 6-{[(3S)-1-(azetidin-1-ylcarbonyl)pyrrolidin-3-yl]oxy}-9-ethyl-8-(2-methylpyrimidin-5-yl)-9H-purine] | >10 |
| CCn1c(-c2cnc(C)nc2)nc2c(OC3CCN(C(=O)N(C)c4ccccc4)CC3)ncnc21 [Compound 5-12, 4-{[9-ethyl-8-(2-methylpyrimidin-5-yl)-9H-purin-6-yl]oxy}-N-methyl-N-phenylpiperidine-1-carboxamide] | >10 |
| CCn1c(-c2cnc(C)nc2)nc2c(O[C@H]3CCN(C(=O)N4CC(OC)C4)C3)ncnc21 [Compound 5-13, 9-ethyl-6-({(3S)-1-[(3-methoxyazetidin-1-yl)carbonyl]pyrrolidin-3-yl}oxy)-8-(2-methylpyrimidin-5-yl)-9H-purine] | >10 |

| SMILES | Relative Selectivity versus PI3Kalpha |
| --- | --- |
| CCn1c(-c2cnc(C)nc2)nc2c(O[C@H]3CCN(C(=O)N4CC(F)(F)C4)C3)ncnc21 [Compound 5-14, 6-{[(3S)-1-[(3,3-difluoroazetidin-1-yl)carbonyl]pyrrolidin-3-yl}oxy)-9-ethyl-8-(2-methylpyrimidin-5-yl)-9H-purine] | >10 |
| CCn1c(-c2cnc(C)nc2)nc2c(O[C@H]3CCN(C(=O)N(C)c4ccccc4)C3)ncnc21 [Compound 5-17, (3S)-3-{[9-ethyl-8-(2-methylpyrimidin-5-yl)-9H-purin-6-yl]oxy}-N-methyl-N-phenylpyrrolidine-1-carboxamide] | >10 |
| CCn1c(-c2cnc(C)nc2)nc2c(O[C@H]3CCN(C(=O)N4CCC(CO)C4)C3)ncnc21 (stereo partly drawn) [Compound 5-18, (1-{[(3S)-3-{[9-ethyl-8-(2-methylpyrimidin-5-yl)-9H-purin-6-yl]oxy}pyrrolidin-1-yl]carbonyl}pyrrolidin-3-yl)methanol] | >10 |
| CCn1c(-c2cnc(C)nc2)nc2c(O[C@H]3CCN(C(=O)N4CCC(C)(C)C4)C3)ncnc21 [Compound 5-19, 6-({(3S)-1-[(3,3-dimethylpyrrolidin-1-yl)carbonyl]pyrrolidin-3-yl}oxy)-9-ethyl-8-(2-methylpyrimidin-5-yl)-9H-purine] | >10 |
| CCn1c(-c2cnc(C)nc2)nc2c(O[C@H]3CCN(C(=O)N4CCC(C)(O)C4)C3)ncnc21 (stereo partly drawn) [Compound 5-20, 1-{[(3S)-3-{[9-ethyl-8-(2-methylpyrimidin-5-yl)-9H-purin-6-yl]oxy}pyrrolidin-1-yl]carbonyl}-3-methylpyrrolidin-3-ol] | >10 |
| CCn1c(-c2cnc(C)nc2)nc2c(O[C@H]3CCN(C(=O)N4CC(C)(OC)C4)C3)ncnc21 [Compound 5-21, 9-ethyl-6-({(3S)-1-[(3-methoxy-3-methylazetidin-1-yl)carbonyl]pyrrolidin-3-yl}oxy)-8-(2-methylpyrimidin-5-yl)-9H-purine] | >10 |
| CCn1c(-c2cnc(C)nc2)nc2c(O[C@H]3CCN(C(=O)N4CC5CC5C4)C3)ncnc21 (stereo partly drawn) [Compound 5-22, 6-{[(3S)-1-(3-azabicyclo[3.1.0]hex-3-ylcarbonyl)pyrrolidin-3-yl]oxy}-9-ethyl-8-(2-methylpyrimidin-5-yl)-9H-purine] | >10 |
| CCn1c(-c2cnc(C)nc2)nc2c(O[C@H]3CCN(C(=O)N4CCCCC4)C3)ncnc21 [Compound 5-23, 9-ethyl-8-(2-methylpyrimidin-5-yl)-6-{[(3S)-1-(piperidin-1-ylcarbonyl)pyrrolidin-3-yl]oxy}-9H-purine] | >10 |
| CCn1c(-c2cnc(C)nc2)nc2c(O[C@H]3CCN(C(=O)N4C5CCC4CC5)C3)ncnc21 [Compound 5-24] | >10 |
| CCn1c(-c2cnc(C)nc2)nc2c(O[C@H]3CCN(C(=O)N4CC(O)C4)C3)ncnc21 [Compound 5-25, 1-{[(3S)-3-{[9-ethyl-8-(2-methylpyrimidin-5-yl)-9H-purin-6-yl]oxy}pyrrolidin-1-yl]carbonyl}azetidin-3-ol] | >10 |
| CCn1c(-c2cnc(C)nc2)nc2c(O[C@H]3CCN(C(=O)N4CCC(F)(F)C4)C3)ncnc21 [Compound 5-26, 6-({(3S)-1-[(3,3-difluoropyrrolidin-1-yl)carbonyl]pyrrolidin-3-yl}oxy)-9-ethyl-8-(2-methylpyrimidin-5-yl)-9H-purine] | >10 |
| CCn1c(-c2cnc(C)nc2)nc2c(O[C@H]3CCN(C(=O)N4CC(F)C4)C3)ncnc21 [Compound 5-27, 9-ethyl-6-({(3S)-1-[(3-fluoroazetidin-1-yl)carbonyl]pyrrolidin-3-yl}oxy)-8-(2-methylpyrimidin-5-yl)-9H-purine] | >10 |
| CCn1c(-c2ccc(C(F)(F)F)nc2)nc2c(O[C@H]3CCN(C(=O)N4CC(OC)C4)C3)ncnc21 [Compound 5-28, (S)-(3-((9-ethyl-8-(6-(trifluoromethyl)pyridin-3-yl)-9H-purin-6-yl)oxy)pyrrolidin-1-yl)(3-methoxyazetidin-1-yl)methanone] | >10 |
| CCn1ncc(-c2nc3c(O[C@H]4CCN(C(C)c5ccccc5)C4)ncnc3n2C)c1C (stereo partly drawn) [Compound 6-1, 8-(1-ethyl-5-methyl-1H-pyrazol-4-yl)-9-methyl-6-{[(3S)-1-(1-phenylethyl)pyrrolidin-3-yl]oxy}-9H-purine] | >10 |
| CCn1ncc(-c2nc3c(O[C@H]4CCN(CC5CCCCC5)C4)ncnc3n2C)c1C [Compound 6-2, 6-{[(3S)-1-(cyclohexylmethyl)pyrrolidin-3-yl]oxy}-8-(1-ethyl-5-methyl-1H-pyrazol-4-yl)-9-methyl-9H-purine] | >10 |
| CCCN1CC[C@H](Oc2ncnc3c2nc(-c2cnn(CC)c2C)n3C)C1 [Compound 6-5, (S)-8-(1-ethyl-5-methyl-1H-pyrazol-4-yl)-9-methyl-6-((1-propylpyrrolidin-3-yl)oxy)-9H-purine] | >10 |

From US9730940B2, “Purine inhibitors of human phosphatidylinositol 3-kinase delta” (priority 2012, dated 2017)
